Measurements: patent US20040235831A1, “Composition for caring for the hair or the eyelashes, containing a pyrazolecarboxamide compound, use thereof for stimulating the growth of the hair and the eyelashes and/or for reducing their loss” (SOCIETE L'OREAL, S.A., priority 2002, published 2004)

What was measured:
[1] = target: T1, 15-PGDH (Homo sapiens, UniProt P15428); test: Test on 15-PGDH (spectrophotometric, PGE2/β-NAD, 340 nm); assay type: biochemical
T1 construct: made in house
T1 sequence (P15428 1-266): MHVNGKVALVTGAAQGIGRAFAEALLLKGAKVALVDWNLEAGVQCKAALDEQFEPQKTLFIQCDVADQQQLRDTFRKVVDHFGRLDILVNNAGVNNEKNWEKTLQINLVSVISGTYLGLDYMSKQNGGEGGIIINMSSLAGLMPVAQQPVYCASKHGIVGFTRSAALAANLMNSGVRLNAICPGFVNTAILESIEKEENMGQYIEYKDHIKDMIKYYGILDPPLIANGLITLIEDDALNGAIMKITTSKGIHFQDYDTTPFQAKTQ
Procedure: The enzyme 15-PGDH is obtained as described in patent application FR 02/05067 filed in the name of L'Oréal, as a suspension in a medium adjusted to a concentration of 0.3 mg/ml and then blocked at −80° C. For the purposes of the test, this suspension is thawed and stored in ice.
In parallel, a 100 mM, pH 7.4 Tris buffer containing 0.1 mM of dithiothreitol (D5545, Sigma-Aldrich, L'isle D'Abeau Chesne, BP 701, 38297, Saint Quentin Fallavier), 1.5 mM of β-NAD (N6522, Sigma-Aldrich, L'isle D'Abeau Chesne, BP 701, 38297, Saint Quentin Fallavier), and 50 μM of prostaglandin E2 (P4172, Sigma-Aldrich, L'isle D'Abeau Chesne, BP 701, 38297, Saint Quentin Fallavier) is prepared.
(§1) 0.965 ml of this buffer (brought to 37° C. beforehand) is introduced into the cuvette of a spectrophotometer (Perkin-Elmer, Lambda 2) thermostatically maintained at 37° C., the measuring wavelength of which is set at 340 nm. 0.035 ml of enzymatic suspension at 37° C. is introduced into the cuvette concomitantly with the recording (corresponding to an increase in the optical density at 340 nm). The maximum reaction rate is recorded.

[2] = target: T2, PGF synthase (PGFS) (Homo sapiens, UniProt P42330); test: Test on PGF synthase (spectrophotometric, 9,10-phenanthrenequinone/β-NADPH, 340 nm); assay type: biochemical; conditions: concentration that inhibits 50% of the enzymatic activity of PGF synthase
T2 construct: made in house
T2 sequence (P42330 1-323): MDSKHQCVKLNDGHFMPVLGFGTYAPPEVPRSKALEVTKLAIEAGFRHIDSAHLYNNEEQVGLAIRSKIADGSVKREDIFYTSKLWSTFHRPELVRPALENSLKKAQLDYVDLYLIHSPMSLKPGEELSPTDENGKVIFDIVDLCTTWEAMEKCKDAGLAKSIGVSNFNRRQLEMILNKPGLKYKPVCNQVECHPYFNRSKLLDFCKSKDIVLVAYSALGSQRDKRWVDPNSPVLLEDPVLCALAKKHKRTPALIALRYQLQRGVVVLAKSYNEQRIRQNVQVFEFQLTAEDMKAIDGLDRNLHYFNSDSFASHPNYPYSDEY
Procedure: The enzyme PGFS is obtained as described in document FR-A-02/05067, at a concentration of 0.5 mg/ml, as a suspension in a suitable medium, and blocked at −80° C. For the purposes of the test, this suspension is thawed and stored in ice.
In parallel, a 100 mM, pH 6.5 Tris buffer containing 20 μM of 9,10-phenanthrenequinone* (P2896, Sigma-Aldrich, L'isle D'Abeau Chesne, BP 701, 38297, Saint Quentin Fallavier) and 100 μM of β-NADPH (N1630, Sigma-Aldrich, L'isle D'Abeau Chesne, BP 701, 38297, Saint Quentin Fallavier) is prepared in a brown flask (protected from light).
*A stock solution with a titre of 1 mM is prepared in absolute ethanol and brought to 40° C.; the flask is placed in an ultrasound cuvette to facilitate the dissolution of the product.
as §1, with “0.950” for “0.965”, “0.05” for “0.035”, “a reduction” for “an increase”
The test values (containing compound (I)) are compared with the control value (without compound (I)); the results indicated represent the percentage of inhibition of PGFS at a concentration of 50 μM.

- Selectivity ([1]; IC50fs/IC50dh ratio (PGF synthase vs 15-PGDH)): >7.5
- IC50 ([1]; concentration that inhibits 50% of the enzymatic activity of 15-PGDH): 10 µM
- IC50 [2]: > 75 µM
SMILES: COc1ccc(-n2ncc(C(=O)N3CCN(C)CC3)c2C)cc1 [Compound 2]
